# Experimental data taken from patent US20150284362A1, “CARBAZOLE-CONTAINING AMIDES, CARBAMATES, AND UREAS AS CRYPTOCHROME MODULATORS” (ReSet Therapeutics, Inc., priority 2014, published 2015).
# Columns and labels:
# C57/Bl6J DIO mice [1] = assay: 7 day dosing in diet-induced obesity (DIO) mouse model of type II diabetes; type: in vivo; conditions: 30 mg/kg PO QD 7 days (positive control)
# Excerpt: (§1) Male C57/Bl6J DIO mice were obtained from The Jackson Laboratory (Sacramento, Calif.). […] Animals were accustomed to these conditions for at least 2 weeks before experimentation and used at approximately 24 weeks of age.
# (§2) Significance was accepted when p<0.05.
# C57/Bl6J DIO mice [2] = assay: Increasing dosages of Compound 72 over 7 days in diet-induced obesity (DIO) mouse model; type: in vivo; conditions: 30 mg/kg PO QD 7 days
# Excerpt: as §1, §2
# Male C57/Bl6J DIO mice were obtained from The Jackson Laboratory (Sacramento, Calif.). […] Animals were accustomed to these conditions for at least 2 weeks before experimentation and used at approximately 26 weeks of age.
# [3] = tested on: core clock gene mRNAs in liver; assay: Four day study, liver core clock gene mRNA, ICR mice; type: in vivo, mouse; conditions: 50 mg/kg PO BID 4 days, ZT6
# Method: Male ICR mice (weighing 30-35 g), obtained from Charles River Laboratories (Hollister, Calif.), were used for the experiment following at least 3 days of acclimation. Mice were dosed with vehicle (WFI or 10% Kolliphor) or compound (50 mg/kg, dose volume 5 mL/kg, PO) for 4 days BID (twice a day), beginning in the afternoon of the first day. The last dose of compound or vehicle was administered on the morning of harvest. On the day of harvest (6 hours following the final dose), mice were euthanized by CO2 asphyxiation and 50 mg of liver tissue was excised and placed in a tube containing 500 μl of RNA later.
# E.Z.N.A.® HP Total RNA Isolation Kits (R6812-01 and the protocol described in the Manual, Revised 2010) were utilized to prepare and isolate RNA from the liver samples. To prepare the RNA samples, 10-30 mg of sample was removed from RNA-Later and placed in a 1.5 ml microfuge tube. […] The cleared supernatant was transferred by pipetting to a DNA Clearance Column Pre-inserted in a 2 mL Collection Tube. The assembled column was centrifuged at 13,000×g for 1 minute, and the flow-through was saved. An equal volume (700 μl) of 70% ethanol was added to the lysate and mixed. The sample was then applied to a HiBind RNA spin column placed into a 2 ml collection tube, which was centrifuged at 10,000×g for 60 seconds at room temperature. RNA Wash Buffer I (250 μl) was added by pipetting directly onto a new HiBind RNA column inserted in a 2 ml collection tube. The assembled column was centrifuged at 10,000×g for 60 seconds. The RNA column was placed into a new 2 ml collection tube. […] The column with bound RNA was incubated at room temperature (25-30° C.) for 15 minutes. RNA Wash Buffer I (500 μl) was added to the column and placed on a bench top for 2 minutes. After centrifuging at 10,000×g for 60 seconds, discarding the flow-through, 500 μl of RNA Wash Buffer II was added and centrifuged at 10,000×g for 60 seconds. Another 500 μl of RNA Wash Buffer II was added and the column assembly was centrifuged at 10,000×g for 60 seconds. The column was centrifuged for 2 minutes at maximum speed to completely dry the HiBind matrix. The column was placed in a clean 1.5 ml microcentrifuge tube and 40-70 μl of molecular biology grade water is added. After sitting for 1 minute, the column was centrifuged for 2 minutes at maximum speed to elute the RNA. The isolated RNA was collected into the collection tube.
# RediPlate 96 RiboGreen RNA Quantification Kit (Invitrogen) RediPlate standard curve was prepared by transferring 20 μl reconstituted RNA standard to a RediPlate well reconstituted in 180 μl RediPlate TE buffer. For liver RNAs prepared from 30-100 mg of tissue using a kit similar to the Omega Bio-Tek HP Total RNA Kit and eluted in RNAse-free water in a volume of 50 μl (microliters), 5 μl of the total RNA is diluted in 195 μl of RediPlate TE buffer (1:40 dilution of RNA), mix. […] Alternatively, one can use the FlexStation 3 with Ex 488 nm and Em 525 nm and a Cutoff of 515 nm.
# Method for db/db mice: Male db/db mice homozygous for Lepr^db (6 weeks of age), were obtained from The Jackson Laboratory (Bar Harbor, Me.). Mice were group housed on a normal light/dark cycle (lights on: 07:00-19:00 h) with ad libitum access to a standard pelleted mouse diet and water. Animals were accustomed to these conditions for 2 weeks before experimentation. […] At 10:30 pm on the evening prior to endpoint measurement, mice were placed into clean cages and given free access to water, but not food for a period of 12 hours before the fasting blood glucose measurement. On the final day of the study, animals were dosed as normal, and then underwent a tail cut injury 2 hours prior to measurement of fasting blood glucose, to allow recovery from any stress the procedure might cause. Fasting blood glucose (FBG) was assessed from the animals at 10:30 am using an AlphaTRAK glucometer (Abbott Laboratories, USA). Following the FBG measurement blood was collected from each mouse, using a tail milking technique, into a capillary tube. Capillary tubes were centrifuged in a hematocrit (BD Triac 0200) and the resultant plasma transferred to an eppendorff. This sample, labelled as t=0 hr, was frozen at −80° C. to allow later measurement of insulin. At 11:30 am each animal was dosed with 0.5 g/kg of glucose, then blood glucose was measured at t=15, 30, 60, 90 and 120 minutes after glucose load. At the end of the OGTT blood was collected for a t=2 hr insulin determination as described above.
# Fasting blood glucose values and glucose measurements taken during the OGTT were averaged and graphed (GraphPad Prism, GraphPad Software, La Jolla, Calif.). The area under the curve (AUC) was calculated for each individual animal. Plasma insulin levels were determined using an Ultrasensitive Insulin ELISA (ALPCO, Salem, N.H.). […] Insulin data was also represented in GraphPad Prism format. Statistical analysis was performed using one-way ANOVA followed by the appropriate post-test. Significance was accepted when p<0.05. Data are presented as mean and S.E.M.
SMILES,HOMA-IR (C57/Bl6J DIO mice [1]),fasting blood glucose (C57/Bl6J DIO mice [1]) [mg/dL],plasma insulin at t=0 (C57/Bl6J DIO mice [1]) [ng/mL],plasma insulin at t=2 hr (C57/Bl6J DIO mice [1]) [ng/mL],fasting blood glucose (C57/Bl6J DIO mice [2]) [mg/dL],HOMA-IR (db/db mice; 30 mg/kg PO QD 7 days),plasma insulin at t=0 (db/db mice; 30 mg/kg PO QD 7 days) [ng/mL],plasma insulin at t=2 hr (db/db mice; 30 mg/kg PO QD 7 days) [ng/mL],fasting blood glucose (db/db mice; 30 mg/kg PO QD 7 days (positive control)) [mg/dL],Cry2 transcripts in liver [3],liver Per2 expression [3]
CN(CCOc1ccc(CC2SC(=O)NC2=O)cc1)c1ccccn1 (stereo not drawn) [Rosiglitazone],24.60+/−1.42 units,153.9 ± 5.05,2.70 ± 0.12,2.30 ± 0.06,161.1 ± 8.06,50.58+/−3.52 units,3.05 ± 0.14,2.28 ± 0.08,280.4 ± 13.66,–,–
"O=C1C2CCC(C2)N1CC(O)Cn1c2ccc(F)cc2c2cc(F)ccc21 (stereo not drawn) [Compound 48, 2-(3-(3,6-difluoro-9H-carbazol-9-yl)-2-hydroxypropyl)-2-azabicyclo[2.2.1]heptan-3-one]",–,–,–,–,–,–,–,–,–,decrease,suppression
"COC1CCCN(CC(O)Cn2c3ccc(F)cc3c3cc(F)ccc32)C1=O (stereo not drawn) [Compound 57, 1-(3-(3,6-difluoro-9H-carbazol-9-yl)-2-hydroxypropyl)-3-methoxypiperidin-2-one]",–,–,–,–,–,–,–,–,–,–,suppression
